# Results taken from patent US20220194936A1, “CRYSTALLINE FORMS OF N-(5-(5-((1R,2S)-2-FLUOROCYCLOPROPYL)-1,2,4-OXADIAZOL-3-YL)-2-METHYLPHENYL)IMIDAZO[1,2-A]PYRIDINE-3-CARBOXAMIDE” (Novartis AG, priority 2019, published 2022).
# Key:
# Assay type in all cases: physicochemical
# [1] = Evaluation of Xenon light exposure (HPLC, XRPD, color); details: Xenon light (approx. 1200 kLuxh, 25° C.)
# Experimental: (§1) 5-(5-((1R,2S)-2-fluorocyclopropyl)-1,2,4-oxadiazol-3-yl)-2-methylphenyl)imidazo[1,2-a]pyridine-3-carboxamide Form A (10 mg) was placed in a container and exposed to approximately 1200 kLuxh of Xenon light at 25° C. The sample was examined by XRPD for physical stability determination and by HPLC for chemical stability determination indicated by the presence of degradation products (DP). The HPLC method used is described in Example 13-1. The color (CL) of the samples was evaluated by visual observation.
# as §1, with “Fumaric acid co-crystal” for “Form A”, “19-1.” for “13-1.”
# [2] = Water activity evaluation - crystal modification (water/ethanol, 2 weeks, XRPD)
# Experimental: 5-(5-((1R,2S)-2-fluorocyclopropyl)-1,2,4-oxadiazol-3-yl)-2-methylphenyl)imidazo[1,2-a]pyrindine-3-carboxamide Form A (10 mg) was placed in a vials containing various ratios of water and ethanol and allowed to equilibrate for 2 weeks. The samples were then examined by XRPD for physical stability determination. The results are given below in Table 5 which show conversion to Form HA and Form HB occurs depending on the water activity. […]
# [3] = Evaluation of humidity at elevated temperature (solid state, open vial, 75% RH, 1 week; HPLC, XRPD, color); details: for Bulk (XRPD): 50° C. and 80° C.
# Experimental: (§2) (5-(5-((1R,2S)-2-fluorocyclopropyl)-1,2,4-oxadiazol-3-yl)-2-methylphenyl)imidazo[1,2-a]pyridine-3-carboxamide Form A (10 mg) was placed in an open vial in a 75% relative humidity (RH) chamber at 50° C. for one week and also in an open vial in a 75% relative humidity (RH) chamber at 80° C. for one week. The initial purity of (5-(5-((1R,2S)-2-fluorocyclopropyl)-1,2,4-oxadiazol-3-yl)-2-methylphenyl)imidazo[1,2-a]pyridine-3-carboxamide Form A was 99.7%.
# The samples were examined by XRPD for physical stability determination and by HPLC for chemical stability determination indicated by the presence of degradation products (DP).
# The HPLC method used is […]
# The color (CL) of the samples was evaluated by visual observation.
# as §2, with “fumaric acid co-crystal” for “Form A”
# The samples were examined by XRPD for physical stability determination and by HPLC for chemical stability determination indicated by the presence of degradation products (DP). The HPLC method used is […]
# [4] = Water activity 0.000, Water/ethanol (v/v) 0.000/1.000, 2 weeks
# [5] = Water activity 0.099, Water/ethanol (v/v) 0.013/0.987, 2 weeks
SMILES,Bulk (XRPD) [1],CL (color) [1],"DP (%) degradation products, Bulk (HPLC) [1]","Modification (XRPD) [2, 4]","Modification (XRPD) [2, 5]",CL (color) ([3]; 50° C.),"DP (%) degradation products, Bulk (HPLC) ([3]; 50° C.)",Bulk (XRPD) [3],CL (color) ([3]; 80° C.),"DP (%) degradation products, Bulk (HPLC) ([3]; 80° C.)","Modification (XRPD) ([2]; Water activity 0.205, Water/ethanol (v/v) 0.030/0.970, 2 weeks)","Modification (XRPD) ([2]; Water activity 0.298, Water/ethanol (v/v) 0.048/0.952, 2 weeks)","Modification (XRPD) ([2]; Water activity 0.398, Water/ethanol (v/v) 0.073/0.927, 2 weeks)","Modification (XRPD) ([2]; Water activity 0.502, Water/ethanol (v/v) 0.104/0.896, 2 weeks)","Modification (XRPD) ([2]; Water activity 0.605, Water/ethanol (v/v) 0.145/0.855, 2 weeks)","Modification (XRPD) ([2]; Water activity 0.700, Water/ethanol (v/v) 0.198/0.802, 2 weeks)","Modification (XRPD) ([2]; Water activity 0.802, Water/ethanol (v/v) 0.296/0.704, 2 weeks)","Modification (XRPD) ([2]; Water activity 0.900, Water/ethanol (v/v) 0.550/0.450, 2 weeks)","Modification (XRPD) ([2]; Water activity 1.000, Water/ethanol (v/v) 1.000/0.000, 2 weeks)"
"Cc1ccc(-c2noc([C@H]3C[C@@H]3F)n2)cc1NC(=O)c1cnc2ccccn12 [Form A, N-(5-(5-((1R,2S)-2-fluorocyclopropyl)-1,2,4-oxadiazol-3-yl)-2-methylphenyl)imidazo[1,2-a]pyridine-3-carboxamide]",Bulk (XRPD): No change,No change,0.06%,No change,No change,No change,0.06%,Bulk (XRPD): No change,No change,0.06%,,,,,,,,,
"Cc1ccc(-c2noc([C@H]3C[C@@H]3F)n2)cc1NC(=O)c1cnc2ccccn12 [fumaric acid co-crystal, N-(5-(5-((1R,2S)-2-fluorocyclopropyl)-1,2,4-oxadiazol-3-yl)-2-methylphenyl)imidazo[1,2-a]pyridine-3-carboxamide fumaric acid co-crystal]",Bulk (XRPD): No change,No change,0.10%,No change,No change,No change,0.11%,Bulk (XRPD): No change,No change,0.09%,No change,No change,No change,No change,No change,No change,No change,No change,No change
